Converted amounts (≈) assume the structure as drawn. Like-named read-outs stand apart in the source and are kept apart here.
What was measured:
[1] = Kinetic solubility assay (nephelometry); format: physicochemical; details: aqueous buffer, kinetic from dmso stock; saline phosphate buffer pH 7.25, 1% DMSO, 25 °C, ± SD; read-out: kinetic solubility Skin
CCR1 = target: T1, CCR1 (Homo sapiens, UniProt P32246); assay: Membrane-based NanoBRET association and dissociation kinetic assays with 12; format: binding; design: Promega pNLF1-C (Nluc) #CCR010TN00; host or cells: HEK293T, transient (PEI)
T1 sequence (P32246 1-355): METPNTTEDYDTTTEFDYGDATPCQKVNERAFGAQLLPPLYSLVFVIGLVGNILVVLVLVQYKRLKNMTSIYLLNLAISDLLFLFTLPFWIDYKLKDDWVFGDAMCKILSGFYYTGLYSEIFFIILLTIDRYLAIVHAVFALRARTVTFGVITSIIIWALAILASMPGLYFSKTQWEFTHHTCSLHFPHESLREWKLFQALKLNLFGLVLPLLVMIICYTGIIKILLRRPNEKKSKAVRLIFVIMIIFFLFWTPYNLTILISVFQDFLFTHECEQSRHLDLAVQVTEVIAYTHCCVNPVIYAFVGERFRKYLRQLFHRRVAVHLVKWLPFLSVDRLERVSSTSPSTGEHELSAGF
Procedure: Membrane-based NanoBRET association kinetic assay: 5 µL of a solution of the fluorescent ligand (12) diluted to varying concentrations (final assay concentrations: 1–3 µM) in assay buffer and 5 µL of assay buffer were transferred to a 384-well plate. For the determination of non-specific binding, we added a solution of a non-labeled competitor dissolved in assay buffer (5, final assay concentration: 10 µM) instead. After the addition of 5 µL of a furimazine solution (final assay dilution:
1:630 in assay buffer), plates were incubated for 3 minutes in the dark at ambient temperature. Subsequently, 20 µL of the membrane preparation (3 µg total protein/well) were added (final assay volume: 35 µL). BRET ratios were measured with a CLARIOstar microplate reader using 620/10 nm and 475/30 nm emission filters over time at ambient temperature.
The obtained data were analyzed using the association kinetics (one ligand concentration) algorithm in PRISM10.2.1 (GraphPad, USA) to determine association kinetics using a pre-determined koff as a constraint.
Membrane-based NanoBRET dissociation kinetic assay: 5 µL of a solution of the fluorescent ligand (12) diluted to varying concentrations (final assay concentrations: 0.25–3 µM) in assay buffer and 5 µL of assay buffer were transferred to a 384-well plate. In order to determine non-specific binding, we added a solution of a non-labeled competitor dissolved in assay buffer (5, final assay concentration: 10 µM) instead of the 5 µL of assay buffer. Then, 20 µL of the membrane preparation (3 µg total protein/well) were added, and plates were incubated for 1 h at ambient temperature in the dark.
Subsequently, 5 µL of a furimazine solution (final assay dilution: 1:630 in assay buffer) were added. Plates were incubated for further 5 minutes in the dark at ambient temperature. Thereafter, 1 µL of a solution of a […] competitor dissolved in assay buffer (5, final assay concentration: 10 µM) was added. For control experiments, we added 1 µL of assay buffer instead of the competitor solution. BRET ratios were measured with a CLARIOstar microplate reader using 620/10 nm and 475/30 nm emission filters over time at ambient temperature. Specific BRET ratios were calculated as a difference of total and non -specific binding. […]
mM HEPES, no phenol red supplemented with 5% FBS) was added and cells were incubated at 37 °C for 30 minutes.
Then, 5 µL of a solution containing the fluorescent ligand ( 12), diluted in assay medium at varying concentrations, were added in case of saturation binding experiments. To determine non-specific binding, 5 µL of a solution of 5 dissolved in assay medium (final assay concentration: 10 µM) were added. For competition binding experiments, 5 µL of a solution of the fluorescent ligand (12) diluted in assay medium (final assay concentration: 1 µM) and 5 µL of a solution of the potential competitor (diluted from 10 mM DMSO-stock solutions with assay medium) at varying concentrations were added to the corresponding wells. After 90 min of incubation at 37 °C, 5 µL of a furimazine solution (final assay dilution: 1:2500, diluted with assay medium) were added. After a further incubation of 5 min in the dark at 37 °C, BRET ratios were measured with a CLARIOstar microplate reader using 620/10 nm and 475/30 nm emission filters. Total, non-specific and specific binding, which was calculated as a difference of total and non-specific binding, were analyzed using the algorithms for one-site saturation binding in PRISM10.2.1 (GraphPad, USA). To determine the inhibition constants (Ki) of the potential competitors, data were normalized to total and non-specific binding and analyzed using the one site-fit Ki equation in PRISM10.2.1 (GraphPad, USA).
Kinetic solubility assay: Kinetic solubility was assessed in saline phosphate buffer pH 7.25 (1.19 g Na2HPO4·12 H2O, 0.095 g KH2PO4 and 4.0 g NaCl in 0.5 L double distilled water). The pH was adjusted to 7.25 with concentrated […]
hydrochloric acid. […]

Compound	solubility kinetic at 10 s [1] [µM]	Kd (CCR1; CCR1_Nluc membranes, from kon and koff, read-out: kinetic KD value KD(kin.)) [nM]	koff (CCR1; CCR1_Nluc membranes, read-out: koff (converted)) [s⁻¹]	kon (CCR1; CCR1_Nluc membranes, read-out: kon (converted)) [M⁻¹ s⁻¹]	residence time (CCR1; CCR1_Nluc membranes, read-out: residence time tr) [min]	kon (CCR1; association at room temperature (membranes), read-out: kon, mean (Table S1) (converted)) [M⁻¹ s⁻¹]	tR, mean (Table S1) (CCR1; dissociation at room temperature (membranes)) [min]	koff, single experiments (Table S1) (CCR1; dissociation at room temperature (membranes), 12 at 250-3000 nM) [s⁻¹]	koff (CCR1; dissociation at room temperature (membranes), 12 at 250-3000 nM, read-out: koff, single experiments (Table S1) (converted)) [s⁻¹]	koff (CCR1; dissociation at room temperature (membranes), read-out: koff, mean (Table S1) (converted)) [s⁻¹]
O=C(C1=C(O)C(=O)N(CCc2ccc(O)cc2)C1c1ccc(F)cc1)c1ccccc1 (racemic) [compound 23]	442 ± 27 (≈ 185 µg/mL)									
CN(C)c1ccc2c(-c3cc(C(=O)NCCOCCOCc4cn(CCCC(=O)C5=C(O)C(=O)N(c6ccc(Br)cc6F)C5C5CCCCC5)nn4)ccc3C(=O)[O-])c3ccc(=[N+](C)C)cc-3oc2c1 (stereo not shown) [compound 12]		317 ± 32	0.00233	7350	7.31 ± 0.22	7360	7.31	0.001978	0.00172	0.00233

From publication PMC11249626, “Fluorophore-Labeled Pyrrolones Targeting the Intracellular Allosteric Binding Site of the Chemokine Receptor CCR1” (ACS Pharmacology & Translational Science, 2024)
